In one data set the target is T1, BRD4 BD1 (Homo sapiens, UniProt O60885).
T1 construct: HEK293 cells were transfected using NanoLuc-BRD4-BD1 or NanoLuc-BRD4-BD2 fusion vectors; host or cells: HEK293
The experiment in a line: NanoBRET bromodomain assay, BRD4 BD1. The data set is classed as cell-based. Conditions: HEK293 cells transfected with NanoLuc-BRD4-BD1. The procedure: (§1) HEK293 cells were transfected using NanoLuc-BRD4-BD1 or NanoLuc-BRD4-BD2 fusion vectors and incubated at 37° C. in an atmosphere of 5% CO2 for 20-24 hours. The transfected cells were then dispensed into 96-well plates using 90 μl cell suspension per well containing 2×10^5 cells/ml in Opti-MEM and 1x final concentration of tracer. 90 μl per well of cell suspension without tracer was also dispensed into at least 3 wells as “No tracer control samples” for background correction. Serially diluted test compounds were prepared at 1000× concentration in DMSO and further diluted to 10× concentration in Opti-MEM. 10 μl per well of the serially diluted 10× test compound was added to the 96-well plates containing cells with 1x tracer. Plates were then incubated at 37° C.+5% C02 incubator for 2 hours. Immediately prior to BRET measurements, a 3x solution consisting of 1:166 dilution of Nano-Glo® Substrate plus a 1:500 dilution of Extracellular NanoLuc Inhibitor in Opti-MEM was prepared and 50 μl per well was added to the cells. Donor emission (450 nm) and acceptor emission (610 nm) were measured using PHERAstar (BMG LabTech). For data analysis, the raw BRET ratio was generated and converted to milliBRET units with background correction using the formula: [(Acceptorsample/Donorsample)−(Acceptorno tracer control/Donorno tracer control)]×1000. The mBU data was plotted as a function of compound concentration and IC50s for BRET assay were determined by nonlinear regression analysis of concentration response curves using the GraphPad Prism software.

The target of a further data set is T2, BRD4 BD2 (Homo sapiens, UniProt O60885).
T2 construct: HEK293 cells were transfected using NanoLuc-BRD4-BD1 or NanoLuc-BRD4-BD2 fusion vectors; host or cells: HEK293
The experiment in a line: NanoBRET bromodomain assay, BRD4 BD2. Particulars: for Fold selectivity BRD4 BD1/BD2: IC50 BD1/IC50 BD2; for IC50: NanoBRET, HEK293 cells transfected with NanoLuc-BRD4-BD2. Format: cell-based. The procedure: as §1
Fold Selectivity Calculated (IC50 BD1/IC50 BD2).
For orientation: BRET reads energy transfer from a luciferase to a nearby fluorophore.

A short description of data set [1]: Intrinsic clearance in rat liver microsomes. The data set is classed as in vitro ADME. Particulars: pH 7.4, NADPH, read-out: Rat Microsomal Stability T½. The procedure: A 50 mM stock solution (in DMSO) was prepared for the compound. From the stock solution, a working solution of 0.5 mM was prepared by diluting the compound in DMSO. This concentration of working solution was prepared considering a final concentration of 1 uM with 0.1% DMSO. The compound (1 uL of working solution) was spiked in PBS with pH 7.4 (22 uL) at a concentration of 1 uM. Subsequently, 110 uL of 10 mM NADPH was added (as a co-factor). The sample was incubated at 37° C. for 15 min. Following this, pre-warmed rat liver microsomes (27.5 uL; final protein conc. 0.5 mg/mL) were added. The samples were then incubated at 37° C. Aliquots of samples were withdrawn at 0, 5, 15, 30, 45 and 60 min. The reaction was stopped by using chilled acetonitrile containing internal standard. The samples were centrifuged and the supernatants analysed by LC-MS/MS. The percent compound remaining at each time point was calculated with respect to that of the 0 min sample. The data were then analysed to calculate half-life. Note that control samples were run without NADPH and blank samples were prepared using DMSO without the test Compound.
(Liver microsomes are a subcellular fraction often used to study metabolism.)

The term IC50 denotes the concentration that gives 50% inhibition. Lower therefore signals inhibition by little substance. `Cc1ccc(C(F)(F)F)cc1-c1cc2c(-c3cc(=O)n(C)cc3Oc3c(C)cccc3C)cn(C)c(=O)c2[nH]1` [Example 21, 4-(5-(2,6-dimethylphenoxy)-1-methyl-2-oxo-1,2-dihydropyridin-4-yl)-6-methyl-2-(2-methyl-5-(trifluoromethyl)phenyl)-1,6-dihydro-7H-pyrrolo[2,3-c] pyridin-7-one]: the concentration for half-maximal inhibition (IC50) on BRD4 BD1 was > 1 µM. Also, at BRD4 BD2, the “Fold selectivity BRD4 BD1/BD2” value is “— (Fold ≥0 and ≤2)”; the IC50 was > 1 µM. Further, in data set [1], the half-life at 1 uM is > 1 h.

As for `Cc1cccc(C)c1Oc1cn(C)c(=O)cc1-c1cn(C)c(=O)c2[nH]c(-c3cncnc3)cc12` [Example 22, 4-(5-(2,6-dimethylphenoxy)-1-methyl-2-oxo-1,2-dihydropyridin-4-yl)-6-methyl-2-(pyrimidin-5-yl)-1,6-dihydro-7H-pyrrolo[2,3-c] pyridin-7-one], the half-inhibitory concentration (IC50) is > 1 µM on BRD4 BD1 and 0.05 to 0.2 µM on BRD4 BD2. Besides, at BRD4 BD2, the “Fold selectivity BRD4 BD1/BD2” value was “xx (Fold >50 and ≤200)”. Further, the half-life at 1 uM in data set [1] is > 1 h.

Take `Cc1ccc(-c2cc3c(-c4cc(=O)n(C)cc4Oc4c(C)cccc4C)cn(C)c(=O)c3[nH]2)cc1` [Example 23, 4-(5-(2,6-dimethylphenoxy)-1-methyl-2-oxo-1,2-dihydropyridin-4-yl)-6-methyl-2-(p-tolyl)-1,6-dihydro-7H-pyrrolo[2,3-c] pyridin-7-one]: the 50% inhibitory concentration (IC50) against BRD4 BD1 is > 1 µM; on BRD4 BD2, 0.2 to 1 µM. Besides, at BRD4 BD2, the “Fold selectivity BRD4 BD1/BD2” value is “x (Fold >2 and ≤50)”. Further, the half-life at 1 uM in data set [1] was > 1 h.

Regarding `Cc1cccc(C)c1Oc1cn(C)c(=O)cc1-c1cn(C)c(=O)c2[nH]c(-c3ccc(C#N)cc3)cc12` [Example 24, 4-(4-(5-(2,6-dimethylphenoxy)-1-methyl-2-oxo-1,2-dihydropyridin-4-yl)-6-methyl-7-oxo-6,7-dihydro-1H-pyrrolo[2,3-c]pyridin-2-yl) benzonitrile], the figures for the 50% inhibitory concentration (IC50) on BRD4 BD1 and on BRD4 BD2 were > 1 µM and 0.2 to 1 µM, respectively. Moreover, the “Fold selectivity BRD4 BD1/BD2” value at BRD4 BD2 was “x (Fold >2 and ≤50)”. Besides, the half-life at 1 uM in data set [1] was > 1 h.

For `Cc1cccc(C)c1Oc1cn(C)c(=O)cc1-c1cn(C)c(=O)c2[nH]c(-c3ccc(F)cc3)cc12` [Example 25, 4-(5-(2,6-dimethylphenoxy)-1-methyl-2-oxo-1,2-dihydropyridin-4-yl)-2-(4-fluorophenyl)-6-methyl-1,6-dihydro-7H-pyrrolo[2,3-c] pyridin-7-one], the IC50 against BRD4 BD1 was > 1 µM. Moreover, on BRD4 BD2, the “Fold selectivity BRD4 BD1/BD2” value is given as “xxx (Fold >200)” and the IC50 was ≤ 0.05 µM. Also, the half-life at 1 uM in data set [1] is > 1 h.

As for `Cc1cccc(C)c1Oc1cn(C)c(=O)cc1-c1cn(C)c(=O)c2[nH]c(-c3ccc(S(C)(=O)=O)cc3)cc12` [Example 26, 4-(5-(2,6-dimethylphenoxy)-1-methyl-2-oxo-1,2-dihydropyridin-4-yl)-6-methyl-2-(4-(methylsulfonyl)phenyl)-1,6-dihydro-7H-pyrrolo[2,3-c] pyridin-7-one], the IC50 against BRD4 BD1 was > 1 µM. Further, on BRD4 BD2, the “Fold selectivity BRD4 BD1/BD2” value was “xx (Fold >50 and ≤200)”; the IC50 is ≤ 0.05 µM. Further, in data set [1], the half-life at 1 uM is > 1 h.

For the compound `Cc1cccc(C)c1Oc1cn(C)c(=O)cc1-c1cn(C)c(=O)c2[nH]c(-c3ccc(C(F)(F)F)cc3)cc12` [Example 28, 4-(5-(2,6-dimethylphenoxy)-1-methyl-2-oxo-1,2-dihydropyridin-4-yl)-6-methyl-2-(4-(trifluoromethyl)phenyl)-1,6-dihydro-7H-pyrrolo[2,3-c] pyridin-7-one], the figures for the IC50 on BRD4 BD1 and against BRD4 BD2 were > 1 µM and 0.05 to 0.2 µM, respectively. Further, on BRD4 BD2, the “Fold selectivity BRD4 BD1/BD2” value was “xx (Fold >50 and ≤200)”. The half-life at 1 uM in data set [1] was > 1 h.

Take `Cc1cccc(C)c1Oc1cn(C)c(=O)cc1-c1cn(C)c(=O)c2[nH]c(-c3ccc(C(N)=O)cc3)cc12` [Example 29, 4-(4-(5-(2,6-dimethylphenoxy)-1-methyl-2-oxo-1,2-dihydropyridin-4-yl)-6-methyl-7-oxo-6,7-dihydro-1H-pyrrolo[2,3-c]pyridin-2-yl) benzamide]: the 50% inhibitory concentration (IC50) against BRD4 BD1 is > 1 µM. At BRD4 BD2, the “Fold selectivity BRD4 BD1/BD2” value is on record as “xxx (Fold >200)” and the IC50 was ≤ 0.05 µM. Besides, in data set [1], the half-life at 1 uM is > 1 h.

In the case of `Cc1cccc(C)c1Oc1cn(C)c(=O)cc1-c1cn(C)c(=O)c2[nH]c(-c3cnn[nH]3)cc12` [Example 30, 4-(5-(2,6-dimethylphenoxy)-1-methyl-2-oxo-1,2-dihydropyridin-4-yl)-6-methyl-2-(1H-1,2,3-triazol-5-yl)-1,6-dihydro-7H-pyrrolo[2,3-c] pyridin-7-one], the IC50 against BRD4 BD1 is > 1 µM; at BRD4 BD2, 0.05 to 0.2 µM. The “Fold selectivity BRD4 BD1/BD2” value at BRD4 BD2 was “xx (Fold >50 and ≤200)”. For the same compound, in data set [1], the half-life at 1 uM is > 1 h.

Consider `Cc1ncc(-c2cc3c(-c4cc(=O)n(C)cc4Oc4c(C)cccc4C)cn(C)c(=O)c3[nH]2)s1` [Example 31, 4-(5-(2,6-dimethylphenoxy)-1-methyl-2-oxo-1,2-dihydropyridin-4-yl)-6-methyl-2-(2-methylthiazol-5-yl)-1,6-dihydro-7H-pyrrolo[2,3-c] pyridin-7-one], for which the concentration for half-maximal inhibition (IC50) at BRD4 BD1 was 0.05 to 0.5 µM. In addition, on BRD4 BD2, the “Fold selectivity BRD4 BD1/BD2” value is “xx (Fold >50 and ≤200)”; the IC50 was ≤ 0.05 µM. Besides, the half-life at 1 uM in data set [1] was > 1 h.

In the case of `Cc1cccc(C)c1Oc1cn(C)c(=O)cc1-c1cn(C)c(=O)c2[nH]c(-c3ccn[nH]3)cc12` [Example 32, 4-(5-(2,6-dimethylphenoxy)-1-methyl-2-oxo-1,2-dihydropyridin-4-yl)-6-methyl-2-(1H-pyrazol-5-yl)-1,6-dihydro-7H-pyrrolo [2,3-c] pyridin-7-one], the IC50 against BRD4 BD1 is > 1 µM. At BRD4 BD2, the “Fold selectivity BRD4 BD1/BD2” value was “xx (Fold >50 and ≤200)”; the IC50 lay within 0.05 to 0.2 µM. In addition, the half-life at 1 uM in data set [1] was > 1 h.

For the compound `Cc1cccc(C)c1Oc1cn(C)c(=O)cc1-c1cn(C)c(=O)c2[nH]c(-c3cnnn3C)cc12` [Example 33, 4-(5-(2,6-dimethylphenoxy)-1-methyl-2-oxo-1,2-dihydropyridin-4-yl)-6-methyl-2-(1-methyl-1H-1,2,3-triazol-5-yl)-1,6-dihydro-7H-pyrrolo[2,3-c] pyridin-7-one], the IC50 against BRD4 BD1 is > 1 µM. At BRD4 BD2, the “Fold selectivity BRD4 BD1/BD2” value is “x (Fold >2 and ≤50)”; the concentration for half-maximal inhibition (IC50) was > 1 µM. In data set [1], the half-life at 1 uM was > 1 h.

On to `Cc1cccc(C)c1Oc1cn(C)c(=O)cc1-c1cn(C)c(=O)c2[nH]c(-c3ccc(C(=O)O)cc3)cc12` [Example 35, 4-(4-(5-(2,6-dimethylphenoxy)-1-methyl-2-oxo-1,2-dihydropyridin-4-yl)-6-methyl-7-oxo-6,7-dihydro-1H-pyrrolo[2,3-c]pyridin-2-yl) benzoic acid], for which the IC50 at BRD4 BD1 was > 1 µM. In addition, on BRD4 BD2, the “Fold selectivity BRD4 BD1/BD2” value is “— (Fold ≥0 and ≤2)”; the IC50 was > 1 µM. For the same compound, the half-life at 1 uM in data set [1] was > 1 h.

`Cc1cccc(C)c1Oc1cn(C)c(=O)cc1-c1cn(C)c(=O)c2[nH]c(-c3cnn(C)c3C)cc12` [Example 36, 2-(1,5-dimethyl-1H-pyrazol-4-yl)-4-(5-(2,6-dimethylphenoxy)-1-methyl-2-oxo-1,2-dihydropyridin-4-yl)-6-methyl-1,6-dihydro-7H-pyrrolo[2,3-c] pyridin-7-one]: on BRD4 BD1, the half-maximal inhibitory concentration (IC50) is > 1 µM. On BRD4 BD2, the “Fold selectivity BRD4 BD1/BD2” value was “xx (Fold >50 and ≤200)”; the IC50 is ≤ 0.05 µM. Further, the half-life at 1 uM in data set [1] is > 1 h.

Values taken from patent US20240308998A1, “PYRROLOPYRIDONE DERIVATIVES USEFUL IN THE TREATMENT OF CANCER” (Tay Therapeutics Limited, priority 2021, published 2024).
